Experimental data: the supplement of paper PMC10307832

Tests used:
Test in all cases: relative viability (nuclei count vs DMSO), 5 days (fraction); higher = more cells survive
NCI-H1437 = test system: NCI-H1437
Summary of the method: (§1)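 Lung cancer cell lines were pin-tool dosed in 1536-well plates on the day after seeding, with either a lone drug or a fixed anchor-drug dose plus five library-drug doses (not always all listed) in √10 steps. Nuclei were counted on 4× images after 5 days. Relative viability is the ratio of treated-well to vehicle-well nuclei counts, with each value a median of duplicate plates.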

NCI-H2009 = test system: NCI-H2009
Summary of the method: as §1

SW 1573 = test system: SW 1573
Summary of the method: as §1

HCC-366 = test system: HCC-366
Summary of the method: as §1

NCI-H727 = test system: NCI-H727
Summary of the method: as §1

NCI-H23 = test system: NCI-H23
Summary of the method: as §1

NCI-H2228 = test system: NCI-H2228
Summary of the method: as §1

HCC-827 = test system: HCC-827
Summary of the method: as §1

CAL-12T = test system: CAL-12T
Summary of the method: as §1

LCLC-103H = test system: LCLC-103H
Summary of the method: as §1

HOP-62 = test system: HOP-62
Summary of the method: as §1

NCI-H460 = test system: NCI-H460
Summary of the method: as §1

NCI-H1355 = test system: NCI-H1355
Summary of the method: as §1

EMC-BAC-2 = test system: EMC-BAC-2
Summary of the method: as §1

COR-L 105 = test system: COR-L 105
Summary of the method: as §1

NCI-H1792 = test system: NCI-H1792
Summary of the method: as §1

HARA = test system: HARA
Summary of the method: as §1

NCI-H1975 = test system: NCI-H1975
Summary of the method: as §1

NCI-H1915 = test system: NCI-H1915
Summary of the method: as §1

NCI-H1755 = test system: NCI-H1755
Summary of the method: as §1

SK-LU-1 = test system: SK-LU-1
Summary of the method: as §1

A-427 = test system: A-427
Summary of the method: as §1

`C[C@@H]1CN(CC(=O)Nc2ccc3c(c2)Cc2cccc(-c4cc(=O)cc(N5CCOCC5)o4)c2S3)C[C@H](C)O1` + CC(C)C[C@H](NC(=O)[C@H](Cc1ccccc1)NC(=O)c1cnccn1)B(O)O [Bortezomib] (partner 0.002 µM) was tested, and the relative viability (NCI-H1437; first compound 0.04 µM) was 0.486, the relative viability (NCI-H1437; first compound 0.1265 µM) was 0.529 and the relative viability (NCI-H1437; first compound 0.4 µM) was 0.489. It also gave a relative viability (NCI-H1437; first compound 4 µM) of 0.45, a relative viability (NCI-H2009; first compound 0.04 µM) of 0.982 and a relative viability (NCI-H2009; first compound 0.1265 µM) of 1.01. The relative viability (NCI-H2009; first compound 0.4 µM) was 0.933, the relative viability (NCI-H2009; first compound 4 µM) was 0.714 and the relative viability (SW 1573; first compound 0.04 µM) was 1.17. For the same compound, the relative viability (SW 1573; first compound 0.1265 µM) was 1.15, the relative viability (SW 1573; first compound 0.4 µM) was 0.926 and the relative viability (SW 1573; first compound 4 µM) was 0.976. It also gave a relative viability (HCC-366; first compound 0.04 µM) of 0.999, a relative viability (HCC-366; first compound 0.1265 µM) of 1.04 and a relative viability (HCC-366; first compound 0.4 µM) of 1.24. For the same compound, the relative viability (HCC-366; first compound 4 µM) was 0.978, the relative viability (NCI-H727; first compound 0.04 µM) was 0.892 and the relative viability (NCI-H727; first compound 0.1265 µM) was 0.824. For the same compound, the relative viability (NCI-H727; first compound 0.4 µM) was 0.804, the relative viability (NCI-H727; first compound 4 µM) was 0.878 and the relative viability (NCI-H23; first compound 0.04 µM) was 1.27. The relative viability (NCI-H23; first compound 0.1265 µM) was 1.21, the relative viability (NCI-H23; first compound 0.4 µM) was 1.03 and the relative viability (NCI-H23; first compound 4 µM) was 0.991. It also gave a relative viability (NCI-H2228; first compound 0.04 µM) of 0.932, a relative viability (NCI-H2228; first compound 0.1265 µM) of 0.877 and a relative viability (NCI-H2228; first compound 0.4 µM) of 0.821. The relative viability (NCI-H2228; first compound 4 µM) was 0.523, the relative viability (HCC-827; first compound 0.04 µM) was 1.01 and the relative viability (HCC-827; first compound 0.1265 µM) was 1.02. The relative viability (HCC-827; first compound 0.4 µM) was 1.06, the relative viability (HCC-827; first compound 4 µM) was 1.09 and the relative viability (CAL-12T; first compound 0.04 µM) was 1.06. For the same compound, the relative viability (CAL-12T; first compound 0.1265 µM) was 0.954, the relative viability (CAL-12T; first compound 0.4 µM) was 1.06 and the relative viability (CAL-12T; first compound 4 µM) was 0.796. For the same compound, the relative viability (LCLC-103H; first compound 0.04 µM) was 1.19, the relative viability (LCLC-103H; first compound 0.1265 µM) was 1.03 and the relative viability (LCLC-103H; first compound 0.4 µM) was 1.09. For the same compound, the relative viability (LCLC-103H; first compound 4 µM) was 0.999, the relative viability (HOP-62; first compound 0.04 µM) was 0.677 and the relative viability (HOP-62; first compound 0.1265 µM) was 0.548. For the same compound, the relative viability (HOP-62; first compound 0.4 µM) was 0.755, the relative viability (HOP-62; first compound 4 µM) was 1.02 and the relative viability (NCI-H460; first compound 0.04 µM) was 1.13. For the same compound, the relative viability (NCI-H460; first compound 0.1265 µM) was 1.05, the relative viability (NCI-H460; first compound 0.4 µM) was 1.24 and the relative viability (NCI-H460; first compound 4 µM) was 0.759. For the same compound, the relative viability (NCI-H1355; first compound 0.04 µM) was 1.2, the relative viability (NCI-H1355; first compound 0.1265 µM) was 1.23 and the relative viability (NCI-H1355; first compound 0.4 µM) was 1.19. The relative viability (NCI-H1355; first compound 4 µM) was 1.18, the relative viability (EMC-BAC-2; first compound 0.04 µM) was 1.07 and the relative viability (EMC-BAC-2; first compound 0.1265 µM) was 1.1. The relative viability (EMC-BAC-2; first compound 0.4 µM) was 1.06, the relative viability (EMC-BAC-2; first compound 4 µM) was 0.985 and the relative viability (COR-L 105; first compound 0.04 µM) was 0.741. For the same compound, the relative viability (COR-L 105; first compound 0.1265 µM) was 0.896, the relative viability (COR-L 105; first compound 0.4 µM) was 1.1 and the relative viability (COR-L 105; first compound 4 µM) was 0.484. It also gave a relative viability (NCI-H1792; first compound 0.04 µM) of 0.939, a relative viability (NCI-H1792; first compound 0.1265 µM) of 0.913 and a relative viability (NCI-H1792; first compound 0.4 µM) of 0.924. The relative viability (NCI-H1792; first compound 4 µM) was 0.859, the relative viability (HARA; first compound 0.04 µM) was 1.14 and the relative viability (HARA; first compound 0.1265 µM) was 1.15. It also gave a relative viability (HARA; first compound 0.4 µM) of 1.09, a relative viability (HARA; first compound 4 µM) of 1.05 and a relative viability (NCI-H1975; first compound 0.04 µM) of 0.394. For the same compound, the relative viability (NCI-H1975; first compound 0.1265 µM) was 0.415, the relative viability (NCI-H1975; first compound 0.4 µM) was 0.39 and the relative viability (NCI-H1975; first compound 4 µM) was 0.27. For the same compound, the relative viability (NCI-H1915; first compound 0.04 µM) was 0.905, the relative viability (NCI-H1915; first compound 0.1265 µM) was 0.964 and the relative viability (NCI-H1915; first compound 0.4 µM) was 1.03. The relative viability (NCI-H1915; first compound 4 µM) was 0.73, the relative viability (NCI-H1755; first compound 0.04 µM) was 1.05 and the relative viability (NCI-H1755; first compound 0.1265 µM) was 1.01. It also gave a relative viability (NCI-H1755; first compound 0.4 µM) of 0.948, a relative viability (NCI-H1755; first compound 4 µM) of 0.942 and a relative viability (SK-LU-1; first compound 0.04 µM) of 1.17. The relative viability (SK-LU-1; first compound 0.1265 µM) was 1.43, the relative viability (SK-LU-1; first compound 0.4 µM) was 1.09 and the relative viability (SK-LU-1; first compound 4 µM) was 1.13. It also gave a relative viability (A-427; first compound 0.04 µM) of 1.02, a relative viability (A-427; first compound 0.1265 µM) of 0.993 and a relative viability (A-427; first compound 0.4 µM) of 0.952. The relative viability (A-427; first compound 4 µM) was 1.03.
